Reference: US20180000768A1, “INTESTINAL FXR AGONISM ENHANCES GLP-1 SIGNALING TO RESTORE PANCREATIC BETA CELL FUNCTIONS” (Salk Institute for Biological Studies, priority 2015, published 2018)

How the values were obtained:
[1] = in vitro permeability in Caco2 cells; conditions: human; for Papp A→B at 2 h, 10 μM: Caco2 cells, assay conc. 10 μM
ob/ob mice = assay: gene expression (RNA-Seq, QPCR) in tissues of treated ob/ob mice; assay type: in vivo, mouse; conditions: INT-777 60 mg/kg P.O. for 5 weeks
Experimental: Total RNA was isolated from cell pellets treated with RNAlater using the RNA mini kit (Qiagen) and treated with DNaseI (Qiagen) for 30 minutes at room temperature. Sequencing libraries were prepared from 100-500 ng total RNA using the TruSeq RNA Sample Preparation Kit v2 (Illumina) according to the manufacturer's protocol. Briefly, mRNA was purified, fragmented, and used for first-, then second-strand cDNA synthesis followed by adenylation of 3′ ends. Samples were ligated to unique adapters and subjected to PCR amplification. Mulitplexed libraries were then validated using the 2100 BioAnalyzer (Agilent), normalized, and pooled for sequencing. RNA-Seq libraries prepared from two biological replicates for each experimental condition were sequenced on the Illumina HiSeq 2500 using bar-coded multiplexing and a 100 bp read length.
Image analysis and base calling were performed with Illumina CASAVA-1.8.2. This yielded a median of 29.9M usable reads per sample. Short read sequences were mapped to a UCSC mm9 reference sequence using the RNA-seq aligner STAR. Known splice junctions from mm9 were supplied to the aligner and de novo junction discovery was also permitted. Differential gene expression analysis, statistical testing and annotation were performed using Cuffdiff 2. Transcript expression was calculated as gene-level relative abundance in fragments per kilobase of exon model per million mapped fragments and employed correction for transcript abundance bias. RNA-Seq results for genes of interest were also explored visually using the UCSC Genome Browser.

[2] = tested on: human enteroendocrinal L cells (NCI-H716); assay: In vitro GLP-1 secretion assay; assay type: cell-based; conditions: L cells pretreated with compound
Experimental: In vitro GLP-1 secretion assay was performed in human enteroendocrinal L cells (NCI-H716). For each secretion assay, cells were seeded at 1×10^5 cells/ml (1 ml/well) in a matrigel-coated 24-well plate. Prior to GLP-1 secretion assay, cells were pre-treated with DMSO, 1 μM Fex, or 1 μM Fex-D overnight. Cells were deprived in Krebs buffer (with 0.1% BSA) with dipeptidyl peptidase (DPP)-4 inhibitor ([…] sitagliptin). GLP-1 was measured with a commercial kit (EZGLP1T-36K, Millipore). For in vivo GLP-1 secretion, each animal was gavaged with 25 mg per kg of body weight sitagliptin 60-minutes before glucose load. Blood was collected from the tail vein at the indicated intervals, and transferred to serum collection tubes containing sitagliptin.

enteroendocrinal L cells = assay: Gene expression analysis (QPCR) in enteroendocrinal L cells; assay type: cell-based, human
in vitro = conditions: human
isolated islets = assay: gene expression after direct ex vivo treatment of isolated islets; assay type: cell-based, mouse; conditions: 24 hours ex vivo, XL335 1 μM, Fex 1 μM
Experimental: Leptin-deficient ob/ob mice were treated daily with vehicle, Fex, or the analogue Fex-D (50 mg/kg) via P.O. for 14 days (A) Chemical structures of fexaramine and Fex-D (B) Schematic of the experimental design (C) Serum glucose levels (D) Glucose tolerance test (E) Insulin secretion in vivo (F) GLP-1 secretion in vivo (G) Heatmap showing hierarchal clustering of gene expression changes in islet induced by Fex (100 mg/kg, 4 wks) and FexD (50 mg/kg, 2 weeks) treatment in ob/ob mice (in vivo); by treatment of islets with XL335 (1 μM), Fex (1 μM), mFgf15 and hFgf19 (24 hours ex vivo); and mFgf15 (0.15 mg/kg, 2 weeks) and INT777 (Tgr5, 60 mg/kg, 4 weeks) treatment of ob/ob mice (in vivo). Gene expression was measured by RNA-Seq and changes are expressed as Z-score. (H) Ven diagram of changes in gene expression in pancreatic islets induced by FEX (100 mg/kg for 5 weeks) and FEX-D (50 mg/kg for 14 days). […] Data represent the mean±STD. Statistical analysis was performed with the Student's t test. *p<0.05, **p<0.01.
Next, primary islets were isolated from mice treated by Fex-D to compare gene expression changes.

[3] = tested on: pancreatic islets from ob/ob mice; assay: Insulin secretion assay on isolated pancreatic islets (ex vivo); assay type: cell-based, mouse; conditions: islets, 100 nM Exendin-4
Experimental: Mouse pancreatic islets were isolated from ob/ob mice according to a method used for rats traditionally. Briefly, 0.5 mg/ml collagenase P (Roche) diluted in HBSS buffer was injected through the common bile duct and the perfused pancreas was dissected and incubated in water bath with 37° C. for 21 minutes. Digested exocrine cells and intact islets were separated using Histopaque-1077 (SIGMA) with centrifugation by 900 g for 15 minutes and intact islets were picked up manually.
Insulin release from intact islets was monitored using batch incubation methods.
Isolated pancreatic islets were cultured over-night with […] supplemented with 10% (v/v) fetal bovine serum and 1% (v/v) Antibiotics-antimycotic solution, were pre-cultured at 37° C. for 30 minutes in Krebs Ringer bicarbonate buffer (KRBH) containing 129.4 mM NaCl, 3.7 mM KCl, 2.7 mM CaCl2, 1.3 mM KH2PO4, 1.3 mM MgSO4, 24.8 mM NaHCO3 (equilibrated with 5% CO2, 95% O2, pH7.4), 10 mM HEPES and 0.2% (v/v) BSA (fraction V) with 3 mM glucose. N ext, the pancreatic islets were incubated for 30 minutes KRBH buffer (500 μl/10 islets) with 3 mM or 20 mM glucose with or without 100 nM Exendin-4 to determine insulin secretion levels. At the end of the incubation period, islets were pelleted by centrifugation, and aliquots of the buffer were sampled. The amounts of insulin were determined by Rat/mouse Insulin ELISA KIT (Millipore) for mice islets.

NCI-H716 cells = assay: Extracellular oxygen consumption rate assay (Seahorse XF96); assay type: cell-based, human
Experimental: Briefly, NCI-H716 cells were seeded in XF 96-well cell culture microplates (Seahorse Bioscience) at 6.0×10^4 cells per well in 150 μl of growth medium and then incubated at 37° C./5% CO2 for 24 hr. A Seahorse Bioscience instrument model XF96 was used to measure the rate of change of dissolved oxygen in the media surrounding the cells. All procedures followed manufacturer's instructions. […] Conversely, treatment with the FXR antagonist guggulsterone reduced basal respiratory rates and the FCCP-induced maximum respiration rate (FIGS. 9A and 9B). To examine the effects of FXR activity on the secretion of GLP-1, the metabolic changes induced in human L cells was measured after treatment with the FXR agonist, fexaramine and an FXR antagonist, guggulsterone. Treatment of L cells with fexaramine (1 μM for 24 hours) lead to an increase in the oxygen consumption rate (OCR), consistent with increased mitochondrial activity and consequently, an increased energetic state (FIG. 9A). The reverse effect was seen after treatment with the FXR antagonist, guggulsterone, with lower OCR after drug treatment.

[4] = Caco-2, A-B Permeability Ranking
[5] = Caco-2, Mean Papp, A-B, 2 hour incubation

| Molecule | Papp B→A at 2 h, 10 μM ([1]; Caco-2) [×10⁻⁶ cm/s] | recovery at 2 h, 10 μM ([1]; Caco-2) [%] | Papp A→B at 2 h, 10 μM [1, 4] [×10⁻⁶ cm/s] | Papp A→B at 2 h, 10 μM [1, 5] [×10⁻⁶ cm/s] | other results |
| --- | --- | --- | --- | --- | --- |
| [2H]C(c1ccc(-c2ccc(N(C)C)cc2)cc1)N(C(=O)[C@@H]1C[C@@H]2CC[C@H]1C2)c1cc(F)cc(/C=C/C(=O)OC)c1 (stereo partly shown) [NSSK 00024] | 0.23 | 192 | < 1 | 0.0294 | – |
| CNC(=C[N+](=O)[O-])NCCSCc1ccc(CN(C)C)o1 [Ranitidine] | 0.922 | 92.7 | < 1 | 0.274 | efflux ratio at 2 h, 10 μM ([1]; Caco-2): 3.36 |
| CC[C@H]1[C@@H](O)[C@@H]2[C@H](C[C@H](O)[C@]3(C)[C@@H]([C@H](C)C[C@H](C)C(=O)O)CC[C@@H]23)[C@@]2(C)CC[C@@H](O)C[C@@H]12 [INT-777] | – | – | – | – | expression of the GLP-1 receptor in islets (ob/ob mice): significantly increased; GLP-1 secretion in response to a glucose challenge [2]: increased; SHP expression (FXR target gene) (enteroendocrinal L cells): not; proglucagon expression (enteroendocrinal L cells): selectively induced |
| CC(=O)CC(c1ccccc1)c1c(O)c2ccccc2oc1=O (stereo not shown) [Warfarin] | – | – | – | – | Papp B→A at 2 h, 10 μM (in vitro; Caco-2): 29.8 ×10⁻⁶ cm/s; efflux ratio at 2 h, 10 μM (in vitro; Caco-2): 0.695; recovery at 2 h, 10 μM (in vitro; Caco-2): 101%; Papp A→B at 2 h, 10 μM (in vitro; [4]): > 1 ×10⁻⁶ cm/s; Papp A→B at 2 h, 10 μM (in vitro; Caco-2, Mean Papp, A-B): 42.8 ×10⁻⁶ cm/s |
| [2H]C(c1ccc(-c2ccc3c(cnn3C)c2)cc1F)N(C(=O)C1CCCCC1)c1cccc(/C=C/C(=O)OC)c1 (stereo not shown) [NSSK 00089] | 0.064 | 67.1 | < 1 | 0.0962 | – |
| [2H]C(c1ccc(-c2ccc3c(cnn3C)c2)cc1)N(C(=O)C1CCCCC1)c1cc(F)cc(/C=C/C(=O)OC)c1 (stereo not shown) [NSSK 00096] | 0.0399 | 69.9 | < 1 | 0.0104 | – |
| CC(C)OC(=O)C1=CN(C(=O)c2ccc(F)c(F)c2)CC(C)(C)c2c1[nH]c1ccccc21 [XL335] | – | – | – | – | transcriptional changes seen in islets in vivo with Fex and Fex-D (isolated islets): not observed |
| Exendin-4: GLP-1 agonist | – | – | – | – | ex vivo insulin secretion in presence of GLP-1 agonist [3]: further potentiated |
| hFgf19: hFgf19 protein used for direct ex vivo treatment of isolated islets | – | – | – | – | transcriptional changes seen in islets in vivo with Fex and Fex-D (isolated islets): not observed |
| C/C=C1\C(=O)C[C@H]2[C@@H]3CCC4=CC(=O)CC[C@]4(C)[C@H]3CC[C@]12C [guggulsterone] | – | – | – | – | basal respiratory rates and the FCCP-induced maximum respiration rate (NCI-H716 cells; L cells, guggulsterone 10 μM for 24 hr): reduced; oxygen consumption rate (OCR) (NCI-H716 cells; human L cells, 24 hours, fexaramine 1 μM, guggulsterone 10 μM): lower |
